Structures can show the parent of a compound that is named as a salt. Where two headings read alike, the source gives them in different places.
Legend:
[1] = molecular target: mu-opioid receptor (MOR); details: cited from earlier work
[2] = tested on: cloned human mu-opioid receptor; details: [35S]GTPγS functional assay; cited from earlier work
[3] = molecular target: T1, CYP2D6 (Homo sapiens, UniProt P10635); assay: P450 inhibition, human liver microsomal CYP2D6; format: in vitro ADME; details: human, human liver microsomes, read-out: 2D6 %Inhibition
T1 construct: selected human liver microsomal cytochrome P450 isozymes (CYP1A2, CYP2C9, CYP2C19, CYP2D6, and CYP3A); from tissue; host or cells: human liver microsomes
T1 sequence (P10635 whole entry): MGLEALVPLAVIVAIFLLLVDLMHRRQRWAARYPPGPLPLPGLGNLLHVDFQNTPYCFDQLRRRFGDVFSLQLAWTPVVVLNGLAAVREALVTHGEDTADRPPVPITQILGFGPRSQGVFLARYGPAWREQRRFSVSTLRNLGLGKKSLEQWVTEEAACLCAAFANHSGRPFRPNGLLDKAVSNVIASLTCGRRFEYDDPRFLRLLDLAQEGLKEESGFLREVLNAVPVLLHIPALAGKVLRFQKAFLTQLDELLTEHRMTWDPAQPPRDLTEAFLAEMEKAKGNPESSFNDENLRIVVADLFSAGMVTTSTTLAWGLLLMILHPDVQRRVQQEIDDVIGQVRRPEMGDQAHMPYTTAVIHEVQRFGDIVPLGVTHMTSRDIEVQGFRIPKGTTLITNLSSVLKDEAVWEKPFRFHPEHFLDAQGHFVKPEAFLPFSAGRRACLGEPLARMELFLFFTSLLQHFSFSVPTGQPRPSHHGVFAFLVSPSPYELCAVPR

[4] = molecular target: T2, δ-opioid receptor (DOR) (Rattus norvegicus, UniProt P33533); assay: Opioid receptor binding, DOR ([3H]DADLE), rat brain homogenate; details: for DOR Binding, activity in exploratory binding assays: 100 nM concentration, displacement of radioligand
T2 construct: All assay tubes contained 100 μL homogenate suspension; from tissue; host or cells: whole rat brain excluding cerebellum, membrane homogenate
T2 sequence (P33533 whole entry): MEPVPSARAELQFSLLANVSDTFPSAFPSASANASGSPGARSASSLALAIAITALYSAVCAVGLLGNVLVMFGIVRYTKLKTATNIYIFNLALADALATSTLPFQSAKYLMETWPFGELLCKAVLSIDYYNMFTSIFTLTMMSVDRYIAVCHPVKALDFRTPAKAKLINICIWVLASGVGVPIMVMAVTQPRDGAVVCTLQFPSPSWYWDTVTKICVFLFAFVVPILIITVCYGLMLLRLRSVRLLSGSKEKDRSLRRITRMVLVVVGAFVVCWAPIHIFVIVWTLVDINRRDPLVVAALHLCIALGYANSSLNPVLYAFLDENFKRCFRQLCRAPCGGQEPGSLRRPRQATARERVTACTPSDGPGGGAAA

[5] = molecular target: T3, μ-opioid receptor (MOR) (Rattus norvegicus, UniProt P33535); assay: Opioid receptor binding, MOR ([3H]DAMGO), rat brain homogenate; details: for MOR Binding, activity in exploratory binding assays: 100 nM concentration, displacement of radioligand; for Ki: [3H]DAMGO, whole rat brains excluding cerebellum, read-out: MOR Binding (Ki ± SEM)
T3 construct: All assay tubes contained 100 μL homogenate suspension; from tissue; host or cells: whole rat brain excluding cerebellum, membrane homogenate
T3 sequence (P33535 whole entry): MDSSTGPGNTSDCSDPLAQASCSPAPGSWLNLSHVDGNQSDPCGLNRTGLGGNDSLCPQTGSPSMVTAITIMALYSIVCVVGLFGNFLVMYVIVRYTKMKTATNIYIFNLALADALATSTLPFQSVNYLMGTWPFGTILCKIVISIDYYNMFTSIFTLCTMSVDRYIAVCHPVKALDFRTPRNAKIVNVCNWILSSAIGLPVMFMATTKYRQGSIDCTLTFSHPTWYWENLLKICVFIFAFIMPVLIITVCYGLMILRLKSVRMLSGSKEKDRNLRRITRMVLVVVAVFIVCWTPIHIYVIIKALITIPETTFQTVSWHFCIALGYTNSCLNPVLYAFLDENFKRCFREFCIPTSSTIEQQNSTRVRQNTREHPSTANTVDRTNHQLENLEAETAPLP

[6] = molecular target: T4, κ-opioid receptor (KOR) (Rattus norvegicus, UniProt P34975); assay: Opioid receptor binding, KOR ([3H]U69,593), rat brain homogenate; details: for KOR Binding, activity in exploratory binding assays: 100 nM concentration, displacement of radioligand; for Ki: [3H]U69,593, whole rat brains excluding cerebellum, read-out: KOR Binding (Ki ± SEM)
T4 construct: All assay tubes contained 100 μL homogenate suspension; from tissue; host or cells: whole rat brain excluding cerebellum, membrane homogenate
T4 sequence (P34975 whole entry): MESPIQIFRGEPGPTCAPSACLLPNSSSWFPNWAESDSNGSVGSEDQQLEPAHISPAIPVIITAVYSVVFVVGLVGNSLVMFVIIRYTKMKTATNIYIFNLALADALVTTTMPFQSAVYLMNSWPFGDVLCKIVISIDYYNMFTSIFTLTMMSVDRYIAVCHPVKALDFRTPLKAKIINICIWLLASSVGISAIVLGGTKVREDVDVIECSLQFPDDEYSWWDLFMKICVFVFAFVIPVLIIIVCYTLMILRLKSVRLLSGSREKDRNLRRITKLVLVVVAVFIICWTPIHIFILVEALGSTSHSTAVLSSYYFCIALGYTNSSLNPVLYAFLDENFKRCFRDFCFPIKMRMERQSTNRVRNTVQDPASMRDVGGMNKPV

[7] = Microsomal metabolic stability, human liver microsomes; details: for Remaining (NCF = 60 min): HLM 0.5, no co-factor (no NADPH); for Remaining (T = 60 min): HLM 0.5, with NADPH
[8] = in vitro; details: mouse, microsomes
[9] = Microsomal metabolic stability, mouse liver microsomes; details: for Remaining (NCF = 60 min): MLM 0.5, no co-factor (no NADPH); for Remaining (T = 60 min): MLM 0.5, with NADPH
[10] = in vitro; details: human, microsomes
[11] = molecular target: CYP2C9 (Homo sapiens, UniProt P11712); assay: P450 inhibition, human liver microsomal CYP2C9; details: microsomes
Chain of CYP2C9 (P11712 whole entry): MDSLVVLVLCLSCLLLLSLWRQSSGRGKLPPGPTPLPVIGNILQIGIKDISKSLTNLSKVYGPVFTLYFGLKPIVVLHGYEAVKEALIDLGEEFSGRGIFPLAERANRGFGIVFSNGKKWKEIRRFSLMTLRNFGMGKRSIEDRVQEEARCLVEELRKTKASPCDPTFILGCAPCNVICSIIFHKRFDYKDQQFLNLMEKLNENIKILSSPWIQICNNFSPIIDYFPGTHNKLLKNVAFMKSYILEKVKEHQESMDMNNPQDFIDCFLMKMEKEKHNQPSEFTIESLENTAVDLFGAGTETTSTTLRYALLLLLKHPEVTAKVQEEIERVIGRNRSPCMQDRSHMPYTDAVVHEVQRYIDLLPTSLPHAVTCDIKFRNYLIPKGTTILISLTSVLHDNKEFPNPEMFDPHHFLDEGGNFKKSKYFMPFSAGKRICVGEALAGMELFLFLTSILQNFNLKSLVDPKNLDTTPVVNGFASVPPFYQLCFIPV

Oc1cccc(C23CCCC(C2)N(CC2CC2c2ccccc2)CC3)c1 (single isomer, unassigned; (-)) [(-)-3]
Ki ([1]; N-substituted 5-phenylmorphans, read-out: affinity at MOR Ki): 4 nM | mu-opioid antagonist activity Ke [2]: 0.3 nM

Oc1cccc2c1O[C@H]1CN(C[C@H]3C[C@H]3c3ccccc3)[C@H]3CCC[C@@]21C3 (as salt: HCl) [(+)-19, (3S,6aR,11aR)-2-(((1S,2R)-2-Phenylcyclopropyl)methyl)-1,3,4,5,6,11a-hexahydro-2H-3,6a-methanobenzofuro[2,3-c]azocin-10-ol]
melting point: 183.1 to 187.7 °C

C=C[C@H]1C[N@@]2CC[C@H]1C[C@@H]2[C@@H](O)c1ccnc2ccc(OC)cc12 [Quinidine, reference compound]
inhibition at 10 µM [3]: 94.2%

Oc1cccc2c1O[C@@H]1CN(C[C@H]3C[C@@H]3c3ccccc3)[C@@H]3CCC[C@]21C3 [(+)-16, (3R,6aS,11aS)-2-(((1S,2S)-2-Phenylcyclopropyl)methyl)-1,3,4,5,6,11a-hexahydro-2H-3,6a-methanobenzofuro[2,3-c]azocin-10-ol]
DOR Binding, activity in exploratory binding assays [4]: NT (NT = not tested—inactive (<50% activity at 100 nM concentration in exploratory binding assays (displaced less than half of radioligand)) | MOR Binding, activity in exploratory binding assays [5]: NT (NT = not tested—inactive (<50% activity at 100 nM concentration in exploratory binding assays (displaced less than half of radioligand)) | KOR Binding, activity in exploratory binding assays [6]: NT (NT = not tested—inactive (<50% activity at 100 nM concentration in exploratory binding assays (displaced less than half of radioligand))

Oc1cccc2c1O[C@@H]1CN(C[C@H]3C[C@H]3c3ccccc3)[C@@H]3CCC[C@]21C3 (as salt: HCl) [(+)-18, (3R,6aS,11aS)-2-(((1S,2R)-2-Phenylcyclopropyl)methyl)-1,3,4,5,6,11a-hexahydro-2H-3,6a-methanobenzofuro[2,3-c]azocin-10-ol]
melting point: 204.4 to 208.5 °C

Oc1cccc2c1O[C@@H]1CN(C[C@@H]3C[C@@H]3c3ccccc3)[C@@H]3CCC[C@]21C3 [(-)-19, (3R,6aS,11aS)-2-(((1R,2S)-2-phenylcyclopropyl)methyl)-1,3,4,5,6,11a-hexahydro-2H-3,6a-methanobenzofuro[2,3-c]azocin-10-ol]
DOR Binding, activity in exploratory binding assays [4]: NT (NT = not tested—inactive (<50% activity at 100 nM concentration in exploratory binding assays (displaced less than half of radioligand)) | MOR Binding, activity in exploratory binding assays [5]: NT (NT = not tested—inactive (<50% activity at 100 nM concentration in exploratory binding assays (displaced less than half of radioligand)) | KOR Binding, activity in exploratory binding assays [6]: NT (NT = not tested—inactive (<50% activity at 100 nM concentration in exploratory binding assays (displaced less than half of radioligand))

Oc1cccc2c1O[C@H]1CN(C[C@H]3C[C@@H]3c3ccccc3)[C@H]3CCC[C@@]21C3 (as salt: HCl) [(+)-17, (3S,6aR,11aR)-2-(((1S,2S)-2-Phenylcyclopropyl)methyl)-1,3,4,5,6,11a-hexahydro-2H-3,6a-methanobenzofuro[2,3-c]azocin-10-ol]
melting point: 187.2 to 192.2 °C

Oc1cccc2c1O[C@@H]1CN(C[C@@H]3C[C@H]3c3ccccc3)[C@@H]3CCC[C@]21C3 (as salt: HCl) [(-)-17, (3R,6aS,11aS)-2-(((1R,2R)-2-Phenylcyclopropyl)methyl)-1,3,4,5,6,11a-hexahydro-2H-3,6a-methanobenzofuro[2,3-c]azocin-10-ol]
melting point: 208.2 to 213.2 °C

Oc1cccc2c1O[C@@H]1CN(C[C@H]3C[C@H]3c3ccccc3)[C@@H]3CCC[C@]21C3 [(+)-18, (3R,6aS,11aS)-2-(((1S,2R)-2-Phenylcyclopropyl)methyl)-1,3,4,5,6,11a-hexahydro-2H-3,6a-methanobenzofuro[2,3-c]azocin-10-ol]
DOR Binding, activity in exploratory binding assays [4]: NT (NT = not tested—inactive (<50% activity at 100 nM concentration in exploratory binding assays (displaced less than half of radioligand)) | MOR Binding, activity in exploratory binding assays [5]: NT (NT = not tested—inactive (<50% activity at 100 nM concentration in exploratory binding assays (displaced less than half of radioligand)) | KOR Binding, activity in exploratory binding assays [6]: NT (NT = not tested—inactive (<50% activity at 100 nM concentration in exploratory binding assays (displaced less than half of radioligand))

Oc1cccc2c1O[C@H]1CN(C[C@H]3C[C@H]3c3ccccc3)[C@H]3CCC[C@@]21C3 [(+)-19, (3S,6aR,11aR)-2-(((1S,2R)-2-Phenylcyclopropyl)methyl)-1,3,4,5,6,11a-hexahydro-2H-3,6a-methanobenzofuro[2,3-c]azocin-10-ol]
DOR Binding, activity in exploratory binding assays [4]: NT (NT = not tested—inactive (<50% activity at 100 nM concentration in exploratory binding assays (displaced less than half of radioligand)) | Ki [5]: 52.4 ± 5.1 nM | Ki [6]: 67.3 ± 7.9 nM

O=C(O)Cc1ccccc1Nc1c(Cl)cccc1Cl [Diclofenac]
Remaining (NCF = 60 min) [7]: 95.1% | Remaining (T = 60 min) [7]: 0.4% | microsomal CLint [8]: 35.4 µL/min/mg | Remaining (NCF = 60 min) [9]: 99.4% | Remaining (T = 60 min) [9]: 33.5% | CLint scaled [10]: 162 mL/min/kg

Oc1cccc2c1O[C@H]1CN(C[C@@H]3C[C@@H]3c3ccccc3)[C@H]3CCC[C@@]21C3 (as salt: HCl) [(-)-18, (3S,6aR,11aR)-2-(((1R,2S)-2-Phenylcyclopropyl)methyl)-1,3,4,5,6,11a-hexahydro-2H-3,6a-methanobenzofuro[2,3-c]azocin-10-ol]
melting point: 193.9 to 198.5 °C

Oc1cccc2c1OC1CN(CCc3ccccc3)C3CCCC21C3 (racemic) [(±)-1]
Ki ([1]; racemate, read-out: mu-opioid receptor affinity Ki): 1.1 nM

Oc1cccc2c1O[C@@H]1CN(C[C@@H]3C[C@@H]3c3ccccc3)[C@@H]3CCC[C@]21C3 (as salt: HBr) [(-)-19, (3R,6aS,11aS)-2-(((1R,2S)-2-phenylcyclopropyl)methyl)-1,3,4,5,6,11a-hexahydro-2H-3,6a-methanobenzofuro[2,3-c]azocin-10-ol]
melting point: 193.3 to 198.3 °C

Nc1ccc(S(=O)(=O)Nc2ccnn2-c2ccccc2)cc1 [Sulfaphenazole]
inhibition at 10 µM [11]: 85.2%

Oc1cccc2c1O[C@@H]1CN(C[C@@H]3C[C@H]3c3ccccc3)[C@@H]3CCC[C@]21C3 [(-)-17, (3R,6aS,11aS)-2-(((1R,2R)-2-Phenylcyclopropyl)methyl)-1,3,4,5,6,11a-hexahydro-2H-3,6a-methanobenzofuro[2,3-c]azocin-10-ol]
DOR Binding, activity in exploratory binding assays [4]: NT (NT = not tested—inactive (<50% activity at 100 nM concentration in exploratory binding assays (displaced less than half of radioligand)) | MOR Binding, activity in exploratory binding assays [5]: NT (NT = not tested—inactive (<50% activity at 100 nM concentration in exploratory binding assays (displaced less than half of radioligand)) | KOR Binding, activity in exploratory binding assays [6]: NT (NT = not tested—inactive (<50% activity at 100 nM concentration in exploratory binding assays (displaced less than half of radioligand))

C[C@]12CC[C@H]3[C@@H](CCC4=CC(=O)CC[C@@]43C)[C@@H]1CC[C@@H]2O [Testosterone]
Remaining (NCF = 60 min) [7]: 86.7% | Remaining (T = 60 min) [7]: 3.9% | CLint scaled [8]: 1720 mL/min/kg | half-life [8]: 3.2 min | microsomal CLint [8]: 435 µL/min/mg | Remaining (NCF = 60 min) [9]: 97.1% | Remaining (T = 60 min) [9]: 0.0% | CLint scaled [10]: 96.4 mL/min/kg

Oc1cccc2c1O[C@@H]1CN(C[C@H]3C[C@@H]3c3ccccc3)[C@@H]3CCC[C@]21C3 (as salt: HCl) [(+)-16, (3R,6aS,11aS)-2-(((1S,2S)-2-Phenylcyclopropyl)methyl)-1,3,4,5,6,11a-hexahydro-2H-3,6a-methanobenzofuro[2,3-c]azocin-10-ol]
melting point: 246.6 to 251.6 °C

Oc1cccc2c1O[C@H]1CN(C[C@@H]3C[C@@H]3c3ccccc3)[C@H]3CCC[C@@]21C3 [(-)-18, (3S,6aR,11aR)-2-(((1R,2S)-2-Phenylcyclopropyl)methyl)-1,3,4,5,6,11a-hexahydro-2H-3,6a-methanobenzofuro[2,3-c]azocin-10-ol]
Ki ([4]; [3H]DADLE, whole rat brains excluding cerebellum, read-out: DOR Binding (Ki ± SEM)): 89 ± 13.4 nM | Ki [6]: 109 ± 16 nM

Oc1cccc2c1O[C@H]1CN(C[C@@H]3C[C@H]3c3ccccc3)[C@H]3CCC[C@@]21C3 (as salt: HCl) [(-)-16, (3S,6aR,11aR)-2-(((1R,2R)-2-Phenylcyclopropyl)methyl)-1,3,4,5,6,11a-hexahydro-2H-3,6a-methanobenzofuro[2,3-c]azocin-10-ol]
melting point: 252.7 to 256.5 °C

Oc1cccc2c1O[C@H]1CN(C[C@@H]3C[C@H]3c3ccccc3)[C@H]3CCC[C@@]21C3 [(-)-16, (3S,6aR,11aR)-2-(((1R,2R)-2-Phenylcyclopropyl)methyl)-1,3,4,5,6,11a-hexahydro-2H-3,6a-methanobenzofuro[2,3-c]azocin-10-ol]
DOR Binding, activity in exploratory binding assays [4]: NT (NT = not tested—inactive (<50% activity at 100 nM concentration in exploratory binding assays (displaced less than half of radioligand)) | Ki [5]: 109 ± 5.5 nM | KOR Binding, activity in exploratory binding assays [6]: NT (NT = not tested—inactive (<50% activity at 100 nM concentration in exploratory binding assays (displaced less than half of radioligand))

— publication PMC9785231, “Synthesis and Pharmacological Evaluation of Enantiopure N-Substituted Ortho-c Oxide-Bridged 5-Phenylmorphans” (Molecules, 2022)
